For the experiment, the target named is Human TAAR 1 (Homo sapiens, UniProt Q96RJ0). As to the kind of experiment: cAMP Biotrak EIA functional assay in HEK293 cells stably expressing hTAAR1. Type of experiment: cell-based. Conditions: for Emax: HEK293, read-out: Max (maximal response as percentage of the maximal cAMP levels induced by p-TYR). In general terms: Cyclic AMP is a second messenger, typically raised through Gs and lowered through Gi signalling.

Setting [1] is: cAMP production in HEK293 cells stably expressing human TAAR 1 (chimera with rat TAAR 1 N-/C-terminus and 3rd intracellular loop, HA leader), means of at least three independent experiments.

Read-outs that look alike come from different tables or passages of the source.

Sequence of Human TAAR 1 (Q96RJ0 with tags, fused parts or gaps): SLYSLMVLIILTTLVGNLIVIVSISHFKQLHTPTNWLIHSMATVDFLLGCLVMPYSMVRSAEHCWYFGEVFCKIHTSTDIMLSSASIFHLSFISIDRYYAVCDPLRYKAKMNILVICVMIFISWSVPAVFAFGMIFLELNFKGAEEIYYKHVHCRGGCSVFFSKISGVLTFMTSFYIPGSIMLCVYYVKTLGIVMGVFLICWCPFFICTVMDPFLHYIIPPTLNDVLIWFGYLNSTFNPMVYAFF
Sequence of Human TAAR 1 (Q923Y9 with tags, fused parts or gaps partner): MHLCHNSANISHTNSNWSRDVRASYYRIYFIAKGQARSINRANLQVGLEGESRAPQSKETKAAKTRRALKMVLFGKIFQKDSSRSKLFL

`NCCc1ccc(O)c(O)c1` [Dopamine, dopamine]: the Emax was found to be 50%.
A word on the EC50: it is the concentration that produces a half-maximal response. The low end stands for a more potent agent, the high end for a less potent agent. On to `NCCc1c[nH]cn1` [Histamine, histamine], for which, under setting [1], the EC50 is > 50 µM.
Regarding `CNCCc1ccc(O)cc1` [N-methyl-p-tyramine], the “Max (maximal response as percentage of the maximal cAMP levels induced by p-TYR)” value was 100%. The compound further gave an EC50 under setting [1] of 2.05 µM.
`CNCCc1ccccc1` [N-methyl-β-PEA]: the “Max (maximal response as percentage of the maximal cAMP levels induced by p-TYR)” value was found to be 100%. Also, under setting [1], a half-maximal response (EC50) required 0.16 µM.
In the case of `NC[C@H](O)c1ccc(O)c(O)c1` [Norepinephrine, norepinephrine], the EC50 under setting [1] was > 50 µM.
As to `NCC(O)c1ccc(O)cc1` (stereo not shown) [OCT, octopamine], the Emax stood at 100%. Also, the EC50 under setting [1] is 10.3 µM.
Turning to `NCCc1c[nH]c2ccc(O)cc12` [Serotonin, 5-HT, Serotonin], the EC50 under setting [1] is > 50 µM.
`NCCc1c[nH]c2ccccc12` [TRY, tryptamine]: the Emax was determined as 100%. Under setting [1], the EC50 amounted to 46.9 µM.
As for `NCCc1ccc(O)cc1` [p-TYR, p-tyramine], a half-maximal effect (EC50) was put at 1.07 µM and the “Max (maximal response as percentage of the maximal cAMP levels induced by p-TYR)” value was determined as 100%.
With `NCCc1ccccc1` [β-PEA, β-phenylethylamine], the Emax amounted to 100%. The compound also came in with an EC50 under setting [1] of 0.3 µM.

Values taken from patent US20060009441A1, “Human trace amine associated receptors” (priority 2004, published 2006).
